Results taken from patent US20260022143A1, “Cyclic Peptide Inhibitors of IL-23” (JANSSEN PHARMACEUTICA NV, priority 2022, published 2026).
Structures can show the parent of a compound that is named as a salt. Starred links: 1 amine or outer side, 2 acyl side, 3 side chain; linkers in the order of their positions; H or OH if unused. Positions of bridges follow the written chain, without caps; N, C: chain ends. Non-standard residues stand in square brackets, D forms with d. Residues, ends and D or L forms follow the SMILES beside them. Groups on a side chain read outwards from the residue. *: point of attachment. X33 = C[N+](C)(C)CCCCc1cn(-c2ccc(C[C@H](N[*:1])C(=O)[*:2])cc2)nn1; Me3N+(CH2)2O(CH2)2O(CH2)2CO = C[N+](C)(C)CCOCCOCCC(=O)*; CH2CH2OCH2CH2OCH2CH2NMe3+ = C[N+](C)(C)CCOCCOCC*; Trp(7-Me) = Cc1cccc2c(C[C@H](N)C(=O)O)c[nH]c12; Hexanoyl(6-NMe3+) = C[N+](C)(C)CCCCCC(=O)*; Ac6c(4,4-F2) = NC1(C(=O)O)CCC(F)(F)CC1; γGlu = O=C(O)[C@H](CCC(=O)[*:2])N[*:1]; 2Nal = N[C@@H](Cc1ccc2ccccc2c1)C(=O)O; AEF = NCCOc1ccc(C[C@H](N)C(=O)O)cc1; NMe3Pal = CN[C@@H](Cc1cccnc1)C(=O)O; X22 = CN1CC[N+](C)(CCOCCOCC*)CC1; 3Pal = N[C@@H](Cc1cccnc1)C(=O)O; Lys(Me) = CNCCCC[C@H](N)C(=O)O; NMeK = CN[C@@H](CCCCN)C(=O)O; Pen = CC(C)(S)[C@H](N)C(=O)O; Lauroyl = CCCCCCCCCCCC(=O)*; Thp = NC1(C(=O)O)CCOCC1; X3 = C[N+](C)(C)CCCCC*; AEEA = NCCOCCOCC(=O)O; Tfa = O=C(C(F)(F)F)*; Sar = CNCC(=O)O

Columns and labels:
IL-23R = target: T1, IL-23R (Homo sapiens, UniProt Q5VWK5); experiment: IL23R Reporter Assay; assay type: cell-based; details: HEK293 cells containing IL-23R, IL-12RP1 and STAT-inducible firefly luciferase reporter; 10 ng/mL IL-23 (EC90); 5 h at 37° C.; read-out: IL23R Reporter Assay
T1 construct: host or cells: HEK293
T1 sequence (Q5VWK5 24-629): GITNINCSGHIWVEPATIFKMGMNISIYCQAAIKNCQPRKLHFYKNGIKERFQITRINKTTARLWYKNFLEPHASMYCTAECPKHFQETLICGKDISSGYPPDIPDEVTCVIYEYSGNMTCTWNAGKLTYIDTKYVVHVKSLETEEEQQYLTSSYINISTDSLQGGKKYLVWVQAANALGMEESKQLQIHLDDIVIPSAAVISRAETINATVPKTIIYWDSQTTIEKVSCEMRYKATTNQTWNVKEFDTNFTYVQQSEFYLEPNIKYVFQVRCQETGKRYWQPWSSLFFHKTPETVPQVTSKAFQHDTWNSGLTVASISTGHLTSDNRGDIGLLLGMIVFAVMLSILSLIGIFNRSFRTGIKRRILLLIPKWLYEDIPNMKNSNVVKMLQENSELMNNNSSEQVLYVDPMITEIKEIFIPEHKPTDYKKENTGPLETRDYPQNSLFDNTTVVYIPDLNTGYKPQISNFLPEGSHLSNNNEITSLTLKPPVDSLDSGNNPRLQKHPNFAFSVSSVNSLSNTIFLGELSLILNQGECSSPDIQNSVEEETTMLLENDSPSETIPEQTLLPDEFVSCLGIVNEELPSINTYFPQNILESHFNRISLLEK

[1] = Exposed Polar Surface Area (EPSA); assay type: physicochemical; details: SFC on Chirex 3014 column; sample 1 mM DMSO stock; read-out: EPSA
In short: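 EPSA, in Å^2, is read from SFC retention time through a linear relationship established with eight calibration standards. Separation uses a Chirex 3014 stationary phase, 35 °C, 14 MPa back pressure, and a 5–60% methanol/ammonium formate modifier gradient in CO2.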

Row | IC50 (IL-23R) [nM] | EPSA [1] [A^2] | SMILES
1 | 4.2 |  | CCCCCCCCCCCC(=O)N[C@@H](CCC(=O)NCCOCCOCC(=O)NCCOCCOCC(=O)NCCCC[C@@H](C(N)=O)N(C)C(=O)[C@H](Cc1cccnc1)NC(=O)[C@H](CC(N)=O)NC(=O)[C@H](CCCCN(C)C(C)=O)NC(=O)C1(NC(=O)[C@H](Cc2ccc3ccccc3c2)NC(=O)[C@H](Cc2ccc(OCCCCC[N+](C)(C)C)cc2)NC(=O)[C@H]2NC(=O)[C@H](CCCCNC(C)=O)NC(=O)[C@H](Cc3c[nH]c4c(C)cccc34)NC(=O)[C@H]([C@@H](C)O)NC(=O)[C@H](CC(=O)N(C)C)NC(=O)[C@@H](NC(=O)CCOCCOCC[N+](C)(C)C)C(C)(C)SSC2(C)C)CCOCC1)C(=O)O [compound 313, cPEG3aCO-Pen(3)-N(N(Me)2)-T-7MeW-K(Ac)-Pen(3)-TMAPF-2Nal-THP-K(NMeaC)-N-3Pya-NMeK(PEG2PEG2gEC12)-CONH2] ({Me3N+(CH2)2O(CH2)2O(CH2)2CO}-[Pen]D(NMe2)T[Trp(7-Me)]K(Ac)[Pen]Y(X3)[2Nal][Thp][Lys(Me)](Ac)N[3Pal][NMeK]([AEEA-AEEA-γGlu-Lauroyl])-NH2; disulfide 1-6)
2 | 940 |  | CC(=O)NCCCC[C@@H]1NC(=O)[C@H](Cc2c[nH]c3c(C)cccc23)NC(=O)[C@H]([C@@H](C)O)NC(=O)[C@H](CC(N)=O)NC(=O)[C@@H](NC(=O)[C@@H](CCCNC(=N)N)NC(C)=O)C(C)(C)SSC(C)(C)[C@@H](C(=O)N[C@@H](Cc2ccc(OCCN)cc2)C(=O)N[C@@H](Cc2ccc3ccccc3c2)C(=O)NC2(C(=O)N[C@@H](CCC(=O)O)C(=O)N[C@@H](CC(N)=O)C(=O)N(C)[C@@H](Cc3cccnc3)C(N)=O)CCOCC2)NC1=O [compound 36] (Ac-[dR][Pen]NT[Trp(7-Me)]K(Ac)[Pen][AEF][2Nal][Thp]EN[NMe3Pal]-NH2; disulfide 2-7 (inferred))
3 | 3.5 |  | CC(=O)NCCCC[C@@H]1NC(=O)[C@H](Cc2c[nH]c3c(-c4cccc(NC(C)=O)c4)cccc23)NC(=O)[C@H]([C@@H](C)O)NC(=O)[C@H](CC(N)=O)NC(=O)[C@@H](NC(=O)CCOCCOCC[N+](C)(C)C)C(C)(C)SSC(C)(C)[C@@H](C(=O)N[C@@H](Cc2ccc(OCCNC(=N)N)cc2)C(=O)N[C@@H](Cc2ccc3ccccc3c2)C(=O)NC2(C(=O)N[C@@H](CCCCN(C)C(C)=O)C(=O)N[C@@H](CC(N)=O)C(=O)N[C@@H](Cc3cncc(C)c3)C(=O)N(C)CC(N)=O)CCOCC2)NC1=O [compound 481, cPEG3aCO-Pen(3)-N-T-7(3NAcPh)W-K(Ac)-Pen(3)-AEF(G)-2Nal-THP-K(NMeAc)-N-5MePyridinAla-Sar-CONH2]
4 |  | 164 | CC(=O)NCCCC[C@@H]1NC(=O)[C@H](Cc2c[nH]c3c(C)cccc23)NC(=O)[C@H]([C@@H](C)O)NC(=O)[C@H](CC(N)=O)NC(=O)[C@@H](NC(C)=O)C(C)(C)SSC(C)(C)[C@@H](C(=O)N[C@@H](Cc2ccc(OCCOCCOCC[N+]3(C)CCN(C)CC3)cc2)C(=O)N[C@@H](Cc2ccc3ccccc3c2)C(=O)NC2(C(=O)N[C@@H](CCC(=O)O)C(=O)N[C@@H](CC(N)=O)C(=O)N[C@@H](Cc3cccnc3)C(=O)N(C)CC(N)=O)CCOCC2)NC1=O [compound 433] (Ac-[Pen]NT[Trp(7-Me)]K(Ac)[Pen]Y(X22)[2Nal][Thp]EN[3Pal][Sar]-NH2; disulfide 1-6 (inferred))
5 |  | 147 | CC(=O)NCCCC[C@@H]1NC(=O)[C@H](Cc2c[nH]c3c(C)cccc23)NC(=O)[C@H]([C@@H](C)O)NC(=O)[C@H](CC(N)=O)NC(=O)[C@@H](NC(=O)CCOCCOCC[N+](C)(C)C)C(C)(C)SSC(C)(C)[C@@H](C(=O)N[C@@H](Cc2ccc(OCCOCCOCC[N+](C)(C)C)cc2)C(=O)N[C@@H](Cc2ccc3ccccc3c2)C(=O)NC2(C(=O)N[C@@H](CCCCNC(C)=O)C(=O)N[C@@H](CC(N)=O)C(=O)N[C@@H](Cc3cccnc3)C(=O)N(C)CC(N)=O)CCOCC2)NC1=O [compound 195, cPEG3aCO-Pen(3)-N-T-7MeW-K(Ac)-Pen(3)-APEG3F-2Nal-THP-K(Ac)-N-3Pya-Sar-CONH2] ({Me3N+(CH2)2O(CH2)2O(CH2)2CO}-[Pen]NT[Trp(7-Me)]K(Ac)[Pen]Y(CH2CH2OCH2CH2OCH2CH2NMe3+)[2Nal][Thp]K(Ac)N[3Pal][Sar]-NH2; disulfide 1-6)
6 |  | 159 | CC(=O)N(C)CCCC[C@@H]1NC(=O)[C@H](Cc2c[nH]c3c(C)cccc23)NC(=O)[C@H]([C@@H](C)O)NC(=O)[C@H](CC(=O)N(C)C)NC(=O)[C@@H](NC(=O)CCOCCOCC[N+](C)(C)C)C(C)(C)SSC(C)(C)[C@@H](C(=O)N[C@@H](Cc2ccc(OCCN)cc2)C(=O)N[C@@H](Cc2ccc3ccccc3c2)C(=O)NC2(C(=O)N[C@@H](CCC(=O)N(C)C)C(=O)N[C@@H](CC(N)=O)C(=O)N[C@@H](Cc3cccnc3)C(=O)N(C)CC(N)=O)CCOCC2)NC1=O [compound 150, cPEG3aCO-Pen(3)-N(N(Me)2)-T-7MeW-K(NMeAc)-Pen(3)-AEF-2Nal-THP-Q(N(Me)2)-N-3Pya-Sar-CONH2] ({Me3N+(CH2)2O(CH2)2O(CH2)2CO}-[Pen]D(NMe2)T[Trp(7-Me)][Lys(Me)](Ac)[Pen][AEF][2Nal][Thp]E(NMe2)N[3Pal][Sar]-NH2; disulfide 1-6)
7 |  | 162 | CC(=O)NCCCC[C@@H]1NC(=O)[C@H](Cc2c[nH]c3c(C)cccc23)NC(=O)[C@H]([C@@H](C)O)NC(=O)[C@H](CC(N)=O)NC(=O)[C@@H](NC(=O)C(F)(F)F)C(C)(C)SSC(C)(C)[C@@H](C(=O)N[C@@H](Cc2ccc(OCCN)cc2)C(=O)N[C@@H](Cc2ccc3ccccc3c2)C(=O)NC2(C(=O)N[C@@H](CCCCNC(C)=O)C(=O)N[C@@H](CC(N)=O)C(=O)N[C@@H](Cc3cccnc3)C(=O)N(C)CC(N)=O)CCC(F)(F)CC2)NC1=O [compound 50] (Tfa-[Pen]NT[Trp(7-Me)]K(Ac)[Pen][AEF][2Nal][Ac6c(4,4-F2)]K(Ac)N[3Pal][Sar]-NH2; disulfide 1-6 (inferred))
8 |  | 173 | CC(=O)NCCCC[C@@H]1NC(=O)[C@H](Cc2c[nH]c3c(C)cccc23)NC(=O)[C@H]([C@@H](C)O)NC(=O)[C@H](CC(N)=O)NC(=O)[C@@H](NC(=O)CCCCC[N+](C)(C)C)C(C)(C)SSC(C)(C)[C@@H](C(=O)N[C@@H](Cc2ccc(OCCN)cc2)C(=O)N[C@@H](Cc2ccc3ccccc3c2)C(=O)NC2(C(=O)N[C@@H](CCC(=O)O)C(=O)N[C@@H](CC(N)=O)C(=O)N[C@@H](Cc3cccnc3)C(=O)N(C)CC(N)=O)CCOCC2)NC1=O [compound 81] ({Hexanoyl(6-NMe3+)}-[Pen]NT[Trp(7-Me)]K(Ac)[Pen][AEF][2Nal][Thp]EN[3Pal][Sar]-NH2; disulfide 1-6 (inferred))
9 |  | 171 | CCCCCCCCCCCC(=O)N[C@@H](CCC(=O)NCCOCCOCC(=O)NCCOCCOCC(=O)NCCCC[C@@H]1NC(=O)[C@@H](NC(=O)[C@@H](CCCCNC(=O)COCCOCCNC(=O)COCCOCCNC(=O)CC[C@H](NC(=O)CCCCCCCCCCC)C(=O)O)NC(=O)CCOCCOCC[N+](C)(C)C)C(C)(C)SSC(C)(C)[C@@H](C(=O)N[C@@H](Cc2ccc(OCCCCC[N+](C)(C)C)cc2)C(=O)N[C@@H](Cc2ccc3ccccc3c2)C(=O)NC2(C(=O)N[C@@H](CCCCN(C)C(C)=O)C(=O)N[C@@H](CC(N)=O)C(=O)N[C@@H](Cc3cccnc3)C(=O)N(C)CC(=O)N(C)C)CCOCC2)NC(=O)[C@H](CCCCN(C)C(C)=O)NC(=O)[C@H](Cc2c[nH]c3c(C)cccc23)NC(=O)[C@H]([C@@H](C)O)NC1=O)C(=O)O [compound 380, cPEG3aCO-k(PEG2PEG2gEC12)-Pen(3)-K(PEG2PEG2gEC12)-T-7MeW-K(NMeAc)-Pen(3)-TMAPF-2Nal-THP-K(NMeAc)-N-3Pya-Sar-CON(Me)2] ({Me3N+(CH2)2O(CH2)2O(CH2)2CO}-[dK]([AEEA-AEEA-γGlu-Lauroyl])[Pen]K([AEEA-AEEA-γGlu-Lauroyl])T[Trp(7-Me)][Lys(Me)](Ac)[Pen]Y(X3)[2Nal][Thp][Lys(Me)](Ac)N[3Pal][Sar]-NMe2; disulfide 2-7)
10 |  | 161 | CC(=O)NCCCC[C@@H]1NC(=O)[C@H](Cc2c[nH]c3c(C)cccc23)NC(=O)[C@H]([C@@H](C)O)NC(=O)[C@H](CC(N)=O)NC(=O)[C@@H](NC(C)=O)C(C)(C)SSC(C)(C)[C@@H](C(=O)N[C@@H](Cc2ccc(-n3cc(CCCC[N+](C)(C)C)nn3)cc2)C(=O)N[C@@H](Cc2ccc3ccccc3c2)C(=O)NC2(C(=O)N[C@@H](CCCCNC(C)=O)C(=O)N[C@@H](CC(N)=O)C(=O)N[C@@H](Cc3cccnc3)C(=O)N(C)CC(N)=O)CCOCC2)NC1=O [compound 425] (Ac-[Pen]NT[Trp(7-Me)]K(Ac)[Pen][X33][2Nal][Thp]K(Ac)N[3Pal][Sar]-NH2; disulfide 1-6 (inferred))
